Experimental data from US20110295037A1, “PROCESSES FOR PREPARING CINACALCET HYDROCHLORIDE AND POLYMORPHIC FORMS THEREOF” (MEDICHEM, S.A., priority 2006, published 2011).

Assay: Particle size distribution (Malvern Mastersizer S, by volume)
Format: physicochemical
Conditions: hydrochloride
Method: VI. Particle Size Distribution Method
The particle size for cinacalcet hydrochloride was measured using a Malvern Mastersizer S particle size analyzer with an MS1 Small Volume Sample Dispersion Unit stirred cell. A 300RF mm lens and a beam length of 2.4 mm were used. Samples for analysis were prepared by dispersing a weighed amount of cinacalcet hydrochloride (approximately 60 mg) in 20 mL of sample dispersant, previously prepared by dilution of 1.5 g of Soybean Lecithin to 200 mL with Isopar G. The suspension was delivered drop-wise to a background corrected measuring cell previously filled with dispersant (Isopar G) until the obscuration reached the desired level. Volume distributions were obtained for three times. After completing the measurements, the sample cell was emptied and cleaned, refilled with suspending medium, and the sampling procedure repeated again. For characterization, the values of D10, D50 and D90 (by volume) were specifically listed, each one being the mean of the nine values available for each characterization parameter.

Structure (SMILES): C[C@@H](NCCCc1cccc(C(F)(F)F)c1)c1cccc2ccccc12.Cl [cinacalcet hydrochloride, N-[1-(R)-(−)-(1-naphthyl)ethyl]-3-[3-(trifluoromethyl)phenyl]-1-aminopropane hydrochloride]
- particle size distribution D90 (v) (after milling): 24 μm
- particle size distribution D90 (v) (after recrystallization from heptane-isobutylacetate): 263 μm
- particle size distribution D90 (v) (after recrystallization from isobutylacetate): 47 μm
